According to patent US12435059B2, “AMP-activated protein kinase inhibitors and methods of making and using the same” (The Regents of the University of Colorado, priority 2019, dated 2025):

Columns and labels:
[1] = molecular target: 468 kinases (Homo sapiens, UniProt P30291); test: biochemical; type: binding; settings: WEE1; read-out: % Inhibition @ 100 nM
[2] = molecular target: 468 kinases (Homo sapiens, UniProt Q9Y2K2); test: biochemical; type: binding; settings: QSK; read-out: % Inhibition @ 100 nM
[3] = molecular target: 468 kinases (Homo sapiens, UniProt P42680); test: biochemical; type: binding; settings: TEC; read-out: % Inhibition @ 100 nM
[4] = molecular target: 468 kinases (Homo sapiens, UniProt Q02156); test: biochemical; type: binding; settings: PRKCE; read-out: % Inhibition @ 100 nM
[5] = molecular target: 468 kinases (Homo sapiens, UniProt O15146); test: biochemical; type: binding; settings: MUSK; read-out: % Inhibition @ 100 nM
[6] = molecular target: 468 kinases (Homo sapiens, UniProt P06241); test: biochemical; type: binding; settings: FYN; read-out: % Inhibition @ 100 nM
[7] = molecular target: 468 kinases (Homo sapiens, UniProt P31749); test: biochemical; type: binding; settings: AKT1; read-out: % Inhibition @ 100 nM
[8] = molecular target: 468 kinases (Homo sapiens, UniProt P22607, G697C); test: biochemical; type: binding; settings: FGFR3(G697C); read-out: % Inhibition @ 100 nM
[9] = molecular target: 468 kinases (Homo sapiens, UniProt Q16512); test: biochemical; type: binding; settings: PKN1; read-out: % Inhibition @ 100 nM
[10] = molecular target: 468 kinases (Homo sapiens, UniProt Q14680); test: biochemical; type: binding; settings: MELK; read-out: % Inhibition @ 100 nM
[11] = molecular target: 468 kinases (Homo sapiens, UniProt Q9UHD2); test: biochemical; type: binding; settings: TBK1; read-out: % Inhibition @ 100 nM
[12] = molecular target: 468 kinases (Homo sapiens, UniProt Q9Y6R4); test: biochemical; type: binding; settings: MAP3K4; read-out: % Inhibition @ 100 nM
[13] = molecular target: 468 kinases (Homo sapiens, UniProt Q13188); test: biochemical; type: binding; settings: MST2; read-out: % Inhibition @ 100 nM
[14] = molecular target: 468 kinases (Homo sapiens, UniProt Q15746); test: biochemical; type: binding; settings: MYLK; read-out: % Inhibition @ 100 nM
[15] = molecular target: 468 kinases (Homo sapiens, UniProt P36888, D835Y); test: biochemical; type: binding; settings: FLT3(D835Y); read-out: % Inhibition @ 100 nM
[16] = molecular target: 468 kinases (Plasmodium falciparum, UniProt P62344); test: biochemical; type: binding; settings: PFCDPK1 (P.falciparum); read-out: % Inhibition @ 100 nM
[17] = molecular target: 468 kinases (Homo sapiens, UniProt Q5VT25); test: biochemical; type: binding; settings: MRCKA; read-out: % Inhibition @ 100 nM
[18] = molecular target: 468 kinases (Homo sapiens, UniProt Q9Y2U5); test: biochemical; type: binding; settings: MAP3K2; read-out: % Inhibition @ 100 nM
[19] = molecular target: 468 kinases (Homo sapiens, UniProt Q9H1R3); test: biochemical; type: binding; settings: MYLK2; read-out: % Inhibition @ 100 nM
[20] = molecular target: 468 kinases (Homo sapiens, UniProt Q9BYT3); test: biochemical; type: binding; settings: STK33; read-out: % Inhibition @ 100 nM
[21] = molecular target: 468 kinases (Homo sapiens, UniProt O94921); test: biochemical; type: binding; settings: PFTK1; read-out: % Inhibition @ 100 nM
[22] = molecular target: 468 kinases (Homo sapiens, UniProt Q9UEW8); test: biochemical; type: binding; settings: STK39; read-out: % Inhibition @ 100 nM
[23] = molecular target: 468 kinases (Homo sapiens, UniProt P53355); test: biochemical; type: binding; settings: DAPK1; read-out: % Inhibition @ 100 nM
[24] = molecular target: 468 kinases (Homo sapiens, UniProt P53779); test: biochemical; type: binding; settings: JNK3; read-out: % Inhibition @ 100 nM
[25] = molecular target: 468 kinases (Homo sapiens, UniProt Q96PY6); test: biochemical; type: binding; settings: NEK1; read-out: % Inhibition @ 100 nM
[26] = molecular target: CSF1R-autoinhibited (Homo sapiens (Human), UniProt P07333); test: Kinome binding analysis at 100 nM, CSF1R-autoinhibited; settings: read-out: Percentage inhibition at 100 nM, CSF1R-autoinhibited
[27] = molecular target: KIT-autoinhibited (Homo sapiens (Human), UniProt P10721); test: Kinome binding analysis at 100 nM, KIT-autoinhibited; settings: read-out: Percentage inhibition at 100 nM, KIT-autoinbibited
[28] = molecular target: 468 kinases (Homo sapiens, UniProt P00519, E255K); test: biochemical; type: binding; settings: ABL1 (E255K)-phosphorylated; read-out: % Inhibition @ 100 nM
[29] = molecular target: 468 kinases (Homo sapiens, UniProt Q13470); test: biochemical; type: binding; settings: TNK1; read-out: % Inhibition @ 100 nM
[30] = molecular target: 468 kinases (Homo sapiens, UniProt P00519, Y253F); test: biochemical; type: binding; settings: ABL1 (Y253F)-phosphorylated; read-out: % Inhibition @ 100 nM
[31] = molecular target: 468 kinases (Homo sapiens, UniProt P08581); test: biochemical; type: binding; settings: MET; read-out: % Inhibition @ 100 nM
[32] = molecular target: 468 kinases (Homo sapiens, UniProt P19784); test: biochemical; type: binding; settings: CSNK2A2; read-out: % Inhibition @ 100 nM
[33] = molecular target: FLT1 (Homo sapiens (Human), UniProt P17948); test: Kinome binding analysis at 100 nM, FLT1; settings: read-out: Percentage inhibition at 100 nM, FLT1

SMILES	inhibition at 0.1 µM [1] [%]	inhibition at 0.1 µM [2] [%]	inhibition at 0.1 µM [3] [%]	inhibition at 0.1 µM [4] [%]	inhibition at 0.1 µM [5] [%]	inhibition at 0.1 µM [6] [%]	inhibition at 0.1 µM [8] [%]	inhibition at 0.1 µM [10] [%]	inhibition at 0.1 µM [11] [%]	inhibition at 0.1 µM [14] [%]	inhibition at 0.1 µM [15] [%]	inhibition at 0.1 µM [16] [%]	inhibition at 0.1 µM [17] [%]	inhibition at 0.1 µM [18] [%]	inhibition at 0.1 µM [20] [%]	inhibition at 0.1 µM [23] [%]	inhibition at 0.1 µM [24] [%]	inhibition at 0.1 µM [25] [%]	inhibition at 0.1 µM [27] [%]	other results
CCN(CC)CCNC(=O)c1c(C)[nH]c(/C=C2\C(=O)Nc3ccc(CCC(N)=O)cc32)c1C [Compound No. 16, (Z)-5-((5-(3-Amino-3-oxopropyl)-2-oxoindolin-3-ylidene)methyl)-N-(2-(diethylamino)ethyl)-2,4-dimethyl-1H-pyrrole-3-carboxamide]	24	0	0	5	15	95	12	16	58	34	100	14	9	29	78	20	55	77	0	inhibition at 0.1 µM [7]: 0%; inhibition at 0.1 µM [9]: 24%; inhibition at 0.1 µM [12]: 8%; inhibition at 0.1 µM [13]: 41%; inhibition at 0.1 µM [19]: 4%; inhibition at 0.1 µM [21]: 13%; inhibition at 0.1 µM [22]: 12%; inhibition at 0.1 µM [26]: 14%
CCN(CC)CCNC(=O)c1c(C)[nH]c(/C=C2\C(=O)Nc3ccc(CCO)cc32)c1C [Compound No. 10, (Z)—N-(2-(Diethylamino)ethyl)-5-((5-(2-hydroxyethyl)-2-oxoindolin-3-ylidene)methyl)-2,4-dimethyl-1H-pyrrole-3-carboxamide]	15	0	0	0	28	0	52	4	57	49	100	0	3	77	70	4	0	9	28	inhibition at 0.1 µM [28]: 35%; inhibition at 0.1 µM [29]: 9%; inhibition at 0.1 µM [30]: 5%; inhibition at 0.1 µM [31]: 13%; inhibition at 0.1 µM [32]: 0%; inhibition at 0.1 µM [33]: 42%
